Source: US20130116336A1, “TREATMENT OF ATAXIA TELANGIECTASIA” (priority 2010, published 2013)
pEC50: −log10 of the molar value.

Key:
[1] = Animal study of alpha-tocotrienol quinone administration: pharmacokinetics in rats; conditions: rat, in vivo, 10 mg/kg
Method: (§1) The particular dosage appropriate for a specific patient is determined by dose titration. […] There is less than dose-proportionality since for an increase in doses of 2.4:6:10:20 there is only an increase in AUCs of 1.5:2.8:4.0:6.7. This lack of dose-proportionality may be due to decreased absorption since there is no change in t1/2 over dose range. Alpha-tocotrienol quinone tested in rats was safe when given acutely up to 2000 mg/kg.

[2] = in vivo; conditions: rat; for NOAEL: female
Method: as §1
The starting dose can be estimated based on the United States Food and Drug Administration guidelines titled “Estimating the Maximum Safe Starting Dose in Initial Clinical Trials for Therapeutics in Adult Healthy Volunteers” (July 2005) as well as the International Conference on Harmonisation of Technical Requirements for Registration of Pharmaceuticals for Human Use (ICH) guidelines titled “Guidance on Non-clinical Safety Studies for the Conduct of Human Clinical Trials and Marketing Authorization for Pharmaceuticals” (July 2008). Per ICH guidelines, predicted exposures from the starting dose should not exceed 1/50th the NOAEL (No-Adverse-Observed-Effect-Level) in the more sensitive species on a mg/m^2 basis. Following a single oral dose of alpha-tocotrienol quinone, the NOAEL was established to be 500 mg/kg for the female rat, i.e. 3,000 mg/m2. This dosage would be equivalent to 81 mg/kg in an adult human. 1/50th of 81 mg/kg is 1.6 mg/kg, i.e. 110 mg for a 70 kg adult, or 16 mg for a 10 kg child. This dose can be administered once, twice, or three times daily.

[3] = Animal study of alpha-tocotrienol quinone administration: pharmacokinetics in fasted dogs; conditions: dog, in vivo, po, 10 mg/kg
Method: as §1

[4] = system: Ataxia-Telangiectasia fibroblast cells AG04405 (AT05); experiment: Ataxia-Telangiectasia cell line assay: rescue of BSO-stressed A-T fibroblasts, Calcein AM viability; format: cell-based; conditions: A-T fibroblasts AT05 stressed with 1 mM BSO for 48 h, Calcein AM fluorescence, tested three times, read-out: ED50, protection of ataxia telangiectasia cells
Method: Alpha-Tocotrienol quinone, was tested for its ability to rescue Ataxia-Telangiectasia fibroblast cells obtained from the Coriell Cell Repositories (Camden, N.J.; repository number AG04405 (AT05), when the cells were stressed by addition of L-buthionine-(S,R)-sulfoximine (BSO), as described in Jauslin et al., Hum. Mol. Genet. 11(24):3055 (2002), Jauslin et al., FASEB J. 17:1972-4 (2003), and International Patent Application WO 2004/003565.
MEM (a medium enriched in amino acids and vitamins, catalog no. 1-31F24-I) and Medium 199 (M199, catalog no. 1-21F22-I) with Earle's Balanced Salts, without phenol red, were purchased from Bioconcept. Fetal Calf Serum was obtained from PAA Laboratories. Basic fibroblast growth factor and epidermal growth factor were purchased from PeproTech. Penicillin-streptomycin-glutamine mix, L-buthionine (S,R)-sulfoximine, and insulin from bovine pancreas were purchased from Sigma. Calcein AM was purchased from Molecular Probes. […]
100 μL of PBS containing 1.2 μM Calcein AM were then added to each well. […] After that time the PBS was discarded, the plate gently tapped on a paper towel and fluorescence (excitation/emission wavelengths of 485 nm and 525 nm, respectively) was read on a Gemini fluorescence reader. […]

SMILES: CC(C)=CCC/C(C)=C/CC/C(C)=C/CCC(C)(O)CCC1=C(C)C(=O)C(C)=C(C)C1=O (stereo not drawn) [Alpha-tocotrienol quinone]
- Cmax [1]: 931 ng/mL
- Tmax [1]: 3.5 h
- bioavailability [1]: ~90%
- half-life [1]: 3.5 h
- NOAEL [2]: 81 mg/kg
- NOAEL ([2]; po): 500 mg/kg
- dose at which safe when given acutely [2]: up to 2000 mg/kg
- NOAEL on body surface basis ([2]; po): 3,000 mg/m2
- Cmax [3]: 442 ng/mL
- Tmax [3]: 2.8 h
- bioavailability [3]: ~16%
- half-life [3]: 7.6 h
- pEC50 [4]: 7.55
